Laboratory results reported in patent US20240131028A1, “CHEMOVACCINATION AGAINST PLASMODIUM INFECTION WITH SELECTIVE PLASMEPSIN X INHIBITORS” (Merck Sharp & Dohme LLC, priority 2021, published 2024).

test system: ring stage parasites (Pf); test: Parasite lactate dehydrogenase (LDH) growth assay (Parasite Assay, PfLDH Assay); format: cell-based, P. falciparum; settings: Plasmodium falciparum, 72 h, Table 3; 72 hours growth, LDH readout; read-out: EC50
Procedure: The parasite stock was maintained at 4% haematocrit in RPMI-Hepes media buffered with sodium bicarbonate and supplemented with 5% heat inactivated human serum and 0.5% albumax. […] On the day of assay set up, a blood smear of the parasite culture was Giemsa stained and counted. The parasitemia was adjusted to 0.7% rings and the haematocrit was diluted to 2% in RPMI-Hepes media buffered with sodium bicarbonate and supplemented with 5% heat inactivated human serum and 0.5% albumax. 30 μl of diluted parasites are then added into 10 μl of media+compound in pre-prepared Greiner TC assay plates. Parasite assay plates were placed in gassed humidified boxes in single layer and allowed to incubate at 37° C. for 72 hours. After 72 hours growth, assay plates were sealed with parafilm and frozen flat, in single file at −80° C. overnight. On the following day, assay plates were allowed to thaw at room temperature for 4 hours to which an LDH assay was performed to measure parasite growth.

SMILES | EC50
COc1ccc([C@H]([C@H]2C[C@@H]2C(=O)N[C@H]2C[C@H](C(F)(F)F)Oc3ccccc32)N2C(=N)NC(C)(C)CC2=O)cn1 [Example 37] | 1.2 nM
Cc1ccc2c(c1)OC(C)(C)C[C@@H]2NC(=O)[C@H]1C[C@@H]1[C@@H](c1cccnc1)N1C(=N)NC(C)(C)CC1=O [Example 85A] | 2.4 nM
CC[C@@]1(C)CC(=O)N(C(c2cncc(F)c2)[C@H]2C[C@@H]2C(=O)N[C@@H]2c3ccccc3OCC2(C)C)C(=N)N1 (stereo partly drawn) [Example 102B] | 2.5 nM
COCC[C@H]([C@H]1C[C@@H]1C(=O)N[C@@H]1CC(C)(C)Oc2cccc(F)c21)N1C(=N)NC(C)(C)CC1=O [Example 88B] | 10 nM
CCC1(CC)CC(=O)N(CC2C(C(=O)N[C@H]3C[C@@H](C(F)(F)F)Oc4ccccc43)C2(C)C)C(=N)N1 (stereo partly drawn) [Example 31A] | 215 nM
COCC[C@H]([C@H]1C[C@@H]1C(=O)N[C@H]1CCOc2ccccc21)N1C(=N)N[C@](C)(C(C)C)CC1=O [Example 22] | 44 nM
Cc1cc2c(cc1Cl)[C@@H](NC(=O)[C@H]1C[C@@H]1CN1C(=N)NC(C)(C)CC1=O)CC(C)(C)O2 [Example 136] | 160 nM
COCC[C@H]([C@H]1C[C@@H]1C(=O)N[C@H]1CC(C)(C)Oc2ccc(F)cc21)N1C(=N)NC(C)(C)CC1=O [Example 72B] | 2.5 nM
CCC1(CC)CC(=O)N([C@@H](c2cccnc2)[C@@H]2[C@@H](C(=O)N[C@H]3C[C@H](C(F)(F)F)Oc4ccccc43)C2(C)C)C(=N)N1 [Example 44A] | 8.3 nM
COCC[C@H]([C@H]1C[C@@H]1C(=O)N[C@@H]1C[C@@H](C(F)(F)F)Oc2ccccc21)N1C(=N)NC(C)(C)CC1=O [Example 24B] | 2 nM
CCC1(C)C[C@H](NC(=O)[C@H]2C[C@@H]2CN2C(=N)NC(C)(C)CC2=O)c2ccccc2O1 (stereo partly drawn) [Example 78] | 300 nM
COCC[C@H]([C@H]1C[C@@H]1C(=O)N[C@H]1C[C@@H](C(F)(F)F)Oc2ccccc21)N1C(=N)NC(C)(C)CC1=O [Example 24A] | 3.4 nM
COCC[C@H]([C@H]1C[C@@H]1C(=O)NC1CC(C)(C)Oc2c(Cl)cccc21)N1C(=N)NC(C)(C)CC1=O (stereo partly drawn) [Example 112A] | 18 nM
CC1(C)CC(=O)N([C@H](c2cccnc2)[C@@H]2[C@@H](C(=O)N[C@H]3C[C@H](C(F)(F)F)Oc4ccccc43)C2(C)C)C(=N)N1 [Example 43A] | 4 nM
CC1C[C@H](NC(=O)[C@H]2C[C@@H]2CN2C(=N)NC(C)(C)CC2=O)c2cc(F)ccc2O1 (stereo partly drawn) [Example 139A] | 99 nM
COCC[C@@H]([C@H]1C[C@@H]1C(=O)N[C@H]1C[C@@H](C(F)(F)F)Oc2ccccc21)N1C(=N)NC(C)(C)CC1=O [Example 24C] | 120 nM
COCC[C@H]([C@H]1C[C@@H]1C(=O)N[C@H]1CC(C)(C)Oc2ccc(Cl)cc21)N1C(=N)NC(C)(C)CC1=O [Example 101] | 2.9 nM

SMILES | EC50
CCC1(CC)CC(=O)N(C[C@H]2C[C@@H]2C(=O)N[C@H]2c3ccccc3C[C@@H]2O)C(=N)N1 [Example 6A] | 188 nM
CC1(C)CC(=O)N(C[C@H]2C[C@@H]2C(=O)NC2CC(C)(C)Oc3ccc(OC(F)(F)F)cc32)C(=N)N1 (stereo partly drawn) [Example 125A] | 231 nM
CC1(C)CC(=O)N([C@H](c2ccc(C#N)cc2)[C@H]2C[C@@H]2C(=O)N[C@H]2C[C@H](C(F)(F)F)Oc3ccccc32)C(=N)N1 [Example 47B] | 0.9 nM
CC1(C)CC(=O)N([C@H](c2cccnc2)[C@H]2C[C@@H]2C(=O)NC2CC(C)(C)Oc3c(Cl)cc(Cl)cc32)C(=N)N1 (stereo partly drawn) [Example 94A] | 0.9 nM
CC1(C)CC(=O)N(C(c2cccc(C#N)c2)[C@H]2C[C@@H]2C(=O)NC2CC(C)(C)Oc3ccc(F)cc32)C(=N)N1 (stereo partly drawn) [Example 53A] | 3.1 nM
COCC[C@H]([C@H]1C[C@@H]1C(=O)N[C@H]1CC(C)(C)Oc2cccc(OC(F)(F)F)c21)N1C(=N)NC(C)(C)CC1=O [Example 107A] | 2.1 nM
CCC1(CC)CC(=O)N([C@H](CCOC)[C@H]2C[C@@H]2C(=O)N[C@H]2C[C@@H](C(F)(F)F)Oc3ccccc32)C(=N)N1 [Example 14] | 0.9 nM
CCC1(CC)CC(=O)N(C[C@@H]2[C@@H](C(=O)N[C@H]3c4ccccc4OC(C)(C)[C@H]3O)C2(F)F)C(=N)N1 [Example 18A] | 39 nM
COCC[C@H]([C@H]1C[C@@H]1C(=O)N[C@H]1CC(C)(C)Oc2cc(OC)ccc21)N1C(=N)NC(C)(C)CC1=O [Example 70B] | 19 nM
CCC1(CC)CC(=O)N([C@H](CCOC)[C@H]2C[C@@H]2C(=O)N[C@H]2c3ccccc3OCC2(C)C)C(=N)N1 [Example 19B] | 4.2 nM
CC1(C)CC(=O)N([C@H](c2cccnc2)[C@H]2C[C@@H]2C(=O)N[C@H]2C[C@H](C(F)(F)F)Oc3ccccc32)C(=N)N1 [Example 32] | 1.8 nM
CC1(C)CC(=O)N(C[C@H]2C[C@@H]2C(=O)N[C@H]2CC(C)(C)Oc3cc(Cl)ccc32)C(=N)N1 [Example 90] | 225 nM
CCC1(CC)CC(=O)N(C[C@H]2C[C@@H]2C(=O)N[C@@H]2C[C@@H](C(F)(F)F)Oc3ccccc32)C(=N)N1 [Example 8B] | 5.3 nM
CC1(C)CC(=O)N([C@H](c2cccnc2)[C@H]2C[C@@H]2C(=O)NC2CC(C)(C)Oc3c(Cl)cccc32)C(=N)N1 (stereo partly drawn) [Example 121A] | 2.5 nM
CC1(C)CC(=O)N(C[C@H]2C[C@@H]2C(=O)N[C@H]2CC3(CCC3)Oc3ccccc32)C(=N)N1 [Example 135] | 190 nM
CCC1(CC)CC(=O)N(C[C@H]2C[C@@H]2C(=O)N[C@H]2CC(C)(C)Oc3ccccc32)C(=N)N1 [Example 5] | 49 nM
COCC[C@H]([C@H]1C[C@@H]1C(=O)N[C@@H]1CC(C)(C)Oc2cc(C)ccc21)N1C(=N)NC(C)(C)CC1=O [Example 83B] | 26 nM

same assay, conditions: Plasmodium falciparum, 72 h, Table 4; 72 hours growth, LDH readout; read-out: EC50 (Table 4)

SMILES | EC50
CCC1(CC)CC(=O)N([C@H](CCOC)[C@H]2C[C@@H]2C(=O)NC2c3cc(Cl)ccc3OC(C)(C)[C@H]2O)C(=N)N1 (stereo partly drawn) [Example 150] | 3.9 nM

same assay, conditions: Table 3; 72 hours growth, LDH readout; read-out: EC50

SMILES | EC50
CCC1(C)CC(NC(=O)[C@H]2C[C@@H]2[C@@H](c2cccnc2)N2C(=N)NC(C)(C)CC2=O)c2ccccc2O1 (single isomer, unassigned) [Example 105B] | 1.8 nM
CC1(C)CC(=O)N(C[C@H]2C[C@@H]2C(=O)N[C@H]2CC(C3CC3)Oc3ccccc32)C(=N)N1 (stereo partly drawn) [Example 140B] | 280 nM
CC(C)C1(C)CC(NC(=O)[C@H]2C[C@@H]2CN2C(=N)NC(C)(C)CC2=O)c2ccccc2O1 (single isomer, unassigned) [Example 79B] | 275 nM
CCC1(C)CC(NC(=O)[C@H]2C[C@@H]2[C@@H](CCOC)N2C(=N)NC(C)(C)CC2=O)c2ccccc2O1 (single isomer, unassigned) [Example 75D] | 7 nM
COCC[C@H]([C@H]1C[C@@H]1C(=O)NC1CC(C)(COC)Oc2ccccc21)N1C(=N)NC(C)(C)CC1=O (single isomer, unassigned) [Example 82D] | 27 nM
CC[C@]1(C)CC(=O)N(C(c2cncc(F)c2)[C@H]2C[C@@H]2C(=O)N[C@@H]2c3ccccc3OC(C)(C)C2(C)O)C(=N)N1 (single isomer, unassigned) [Example 103A] | 29 nM
COCC[C@H]([C@H]1C[C@@H]1C(=O)NC1CC(C)(COC)Oc2ccccc21)N1C(=N)NC(C)(C)CC1=O (single isomer, unassigned) [Example 82A] | 24.4 nM
CC(C)C1(C)CC(NC(=O)[C@H]2C[C@@H]2[C@@H](c2cccnc2)N2C(=N)NC(C)(C)CC2=O)c2ccccc2O1 (single isomer, unassigned) [Example 81B] | 1 nM
CCC1(CC)CC(=O)N(C[C@H]2C(C)[C@@H]2C(=O)N[C@@H]2c3ccccc3OCC2(C)O)C(=N)N1 (single isomer, unassigned) [Example 35B] | 220 nM
CCC1C[C@H](NC(=O)[C@H]2C[C@@H]2CN2C(=N)NC(C)(C)CC2=O)c2ccccc2O1 (single isomer, unassigned) [Example 133B] | 100 nM
CC[C@]1(C)CC(=O)N([C@H](CCOC)[C@H]2C[C@@H]2C(=O)NC2CC(C)(C)Oc3ccc(C(F)(F)F)cc32)C(=N)N1 (single isomer, unassigned) [Example 127A] | 1.1 nM
CC[C@]1(C)CC(=O)N(C(c2cncc(F)c2)[C@H]2C[C@@H]2C(=O)NC2c3ccccc3OC(C(F)(F)F)C2O)C(=N)N1 (single isomer, unassigned) [Example 104A] | 4 nM
COCC1(C)CC(NC(=O)[C@H]2C[C@@H]2[C@@H](c2cccnc2)N2C(=N)NC(C)(C)CC2=O)c2ccccc2O1 (single isomer, unassigned) [Example 108B] | 3.7 nM
COCC[C@H]([C@H]1C[C@@H]1C(=O)NC1CC(C)(C(C)C)Oc2ccccc21)N1C(=N)NC(C)(C)CC1=O (single isomer, unassigned) [Example 80D] | 21 nM
CCC1(C)CC(NC(=O)[C@H]2C[C@@H]2[C@@H](CCOC)N2C(=N)NC(C)(C)CC2=O)c2ccccc2O1 (single isomer, unassigned) [Example 75C] | 7 nM

same assay, conditions: Table 4; 72 hours growth, LDH readout; read-out: EC50 (Table 4)

SMILES | EC50
CCC1(CC)CC(=O)N([C@H](CCOC)[C@H]2C[C@@H]2C(=O)NC2CC(C)(C)Oc3c(Cl)cccc32)C(=N)N1 (stereo partly drawn) [Example 148B] | 1.9 nM
